From article PMC12332266 (Frontiers in Pharmacology, 2025)
Read-outs that look alike come from different tables or passages of the source. One block for each molecule: values may come before it.

What was measured:
[1] = ref extensive literature search, cited from earlier work
[2] = test system: hiPSC-CM (iCell Cardiomyocytes^2); experiment: Intracellular miRNA expression by RT-qPCR in hiPSC-CM pellets after 72-hour treatment; conditions: for hsa-miR-7-5p fold change, intracellular / hsa-miR-29a-5p fold change, intracellular / hsa-miR-126-3p fold change, intracellular / hsa-miR-133b fold change, intracellular / hsa-miR-146b-5p fold change, intracellular / hsa-miR-182-5p fold change, intracellular / hsa-miR-185-3p fold change, intracellular / hsa-miR-187-3p fold change, intracellular / hsa-miR-208b-3p fold change, intracellular / hsa-miR-365a-5p fold change, intracellular / hsa-miR-96-5p fold change, intracellular: 72 h
Experimental: (§1) Culture media change was performed every 2 days.
Total RNA was extracted from hiPSC-CM using the miRNeasy 96 Kit (Qiagen, Hilden, Germany) following the manufacturer’s recommendations. After the extraction, RNA purity was assessed by NanoDrop™ 8000 Spectrophotometer (Thermo Fisher Scientific Inc.). 5–10 ng/μL of RNA per sample were reverse transcribed and pre-amplified by using the TaqMan™ Advanced miRNA cDNA Synthesis Kit (Thermo Fisher Scientific Inc.). The synthesized cDNA was used for RT-qPCR with selected TaqMan™ assays (Thermo Fischer Scientific Inc.). RT-qPCR was carried out following the Applied Biosciences TaqMan miRNA expression assay protocol on a ViiA7 instrument (Thermo Fisher Scientific, Inc.). […] Therefore, to maximize the number of drugs and concentrations, explored in the same study, we pooled the triplicates for intracellular profiling of miRNAs. Therefore, no statistical analysis was performed on the data of miRNA profiling in the pellets of hiPSC-CM.
Following RTCA CardioECR assessment, hiPSC-CM cell pellets were collected, and total RNA was extracted and purified to investigate miRNAs upregulation by RT-qPCR. […] For the initial assessment of intracellular miRNAs in 12 different treatments, encompassing various drug classes, we used a panel of 17 miRNAs, which we selected from the publicly available data focusing mainly on in vitro models and structural cardiotoxicants (Supplementary Table S2).

[3] = test system: hiPSC-CM (iCell Cardiomyocytes^2); experiment: RTCA CardioECR assessment (impedance and electrophysiology parameters)
Experimental: as §1
After seeding on fibronectin-coated xCELLigence ePlates (Agilent Technologies, Inc. Santa Clara, CA, USA), iCell^2 CM were monitored continuously through impedance electrodes. The following impedance parameters were measured: Cell Index (CI, measure of cell “health” and monolayer integrity), beating rate (BR) and amplitude (CI Amplitude, magnitude of contraction). Electrophysiology-like parameters (Field Potential Duration (FPD), considered as a surrogate for QT in in vivo studies, and Spike Amplitude (SA), depolarization induced by Na^+ channel opening) were measured starting from day 4–6, following the monolayer formation. […] All RTCA CardioECR data were double normalized (DMSO control and the baseline) with no further statistical group comparison for the normalized parameters. The variability of the data within the treatment groups was assessed by standard deviation.

intracellular miRNA upregulation in hiPSC-CM, in words [2]: smallest fold change
miRNAs hiPSC-CM pellet, MEC overall [2]: 0.3 µM
miRNAs upregulated at the MEC overall (hiPSC-CM pellet) [2]: miR-126-3p
hsa-miR-7-5p fold change, intracellular ([2]; 0.01 µM): 1.2
hsa-miR-29a-5p fold change, intracellular ([2]; 0.01 µM): 0.5
hsa-miR-126-3p fold change, intracellular ([2]; 0.01 µM): 1.4
hsa-miR-133b fold change, intracellular ([2]; 0.01 µM): 0.3
hsa-miR-146b-5p fold change, intracellular ([2]; 0.01 µM): 0.2
hsa-miR-182-5p fold change, intracellular ([2]; 0.01 µM): 0.3
hsa-miR-185-3p fold change, intracellular ([2]; 0.01 µM): 0.7
hsa-miR-187-3p fold change, intracellular ([2]; 0.01 µM): 0.7
hsa-miR-208b-3p fold change, intracellular ([2]; 0.01 µM): 1.0
hsa-miR-365a-5p fold change, intracellular ([2]; 0.01 µM): 0.8
hsa-miR-7-5p fold change, intracellular ([2]; 0.1 µM): 1.2
hsa-miR-29a-5p fold change, intracellular ([2]; 0.1 µM): 0.2
hsa-miR-96-5p fold change, intracellular ([2]; 0.1 µM): 0.3
hsa-miR-126-3p fold change, intracellular ([2]; 0.1 µM): 3.0
hsa-miR-133b fold change, intracellular ([2]; 0.1 µM): 0.2
hsa-miR-146b-5p fold change, intracellular ([2]; 0.1 µM): 0.2
hsa-miR-182-5p fold change, intracellular ([2]; 0.1 µM): 0.2
hsa-miR-185-3p fold change, intracellular ([2]; 0.1 µM): 1.5
hsa-miR-187-3p fold change, intracellular ([2]; 0.1 µM): 0.7
hsa-miR-208b-3p fold change, intracellular ([2]; 0.1 µM): 1.1
hsa-miR-365a-5p fold change, intracellular ([2]; 0.1 µM): 0.2
hsa-miR-7-5p fold change, intracellular ([2]; 0.3 µM): 0.5
hsa-miR-29a-5p fold change, intracellular ([2]; 0.3 µM): 0.2
hsa-miR-126-3p fold change, intracellular ([2]; 0.3 µM): 4.3
hsa-miR-133b fold change, intracellular ([2]; 0.3 µM): 0.4
hsa-miR-146b-5p fold change, intracellular ([2]; 0.3 µM): 0.2
hsa-miR-182-5p fold change, intracellular ([2]; 0.3 µM): 0.7
hsa-miR-185-3p fold change, intracellular ([2]; 0.3 µM): 0.7
hsa-miR-187-3p fold change, intracellular ([2]; 0.3 µM): 0.5
hsa-miR-208b-3p fold change, intracellular ([2]; 0.3 µM): 0.5
hsa-miR-365a-5p fold change, intracellular ([2]; 0.3 µM): 0.7
hsa-miR-7-5p fold change, intracellular ([2]; 1 µM): 0.9
hsa-miR-29a-5p fold change, intracellular ([2]; 1 µM): 0.4
hsa-miR-96-5p fold change, intracellular ([2]; 1 µM): 1.4
hsa-miR-126-3p fold change, intracellular ([2]; 1 µM): 5.5
hsa-miR-133b fold change, intracellular ([2]; 1 µM): 0.3
hsa-miR-146b-5p fold change, intracellular ([2]; 1 µM): 0.3
hsa-miR-182-5p fold change, intracellular ([2]; 1 µM): 0.4
hsa-miR-185-3p fold change, intracellular ([2]; 1 µM): 0.3
hsa-miR-187-3p fold change, intracellular ([2]; 1 µM): 0.7
hsa-miR-208b-3p fold change, intracellular ([2]; 1 µM): 1.2
Contractility Amplitude MEC ([3]; human, 72 h): 0.1 µM
Spike Amplitude (SA) MEC ([3]; human, 72 h): 0.01 µM
SMILES: Cc1cn(-c2cc(NC(=O)c3ccc(C)c(Nc4nccc(-c5cccnc5)n4)c3)cc(C(F)(F)F)c2)cn1 [Nilotinib]
Cmax total ([1]; Supplementary Table 1): 840 to 4270 nM
Cmax total ([1]; Table 1): 840 to 4270 nM
Cell index (CI) MEC ([3]; hiPSC-CM, 72-hour treatment, lowest concentration causing at least 20% change from baseline): ND (ND – not detected, magnitude of change was lower than 20%)
RTCA, MEC (CI) ([3]; hiPSC-CM, change ≥20%, Table 2): ND (ND – not detected, magnitude of change was lower than 20% for CI/BR)

miRNAs hiPSC-CM pellet, MEC overall [2]: 0.1 µM
miRNAs upregulated at the MEC overall (hiPSC-CM pellet) [2]: miR-126-3p, miR-146b-5p, miR-208b-3p
Beating Rate MEC ([3]; human, 72 h): 3 µM
Beating rate (BR) MEC ([3]; human, 72 h): 3 µM
Contractility Amplitude MEC ([3]; human, 72 h): 0.1 µM
Field Potential Duration MEC ([3]; human, 72 h): 1 µM
RTCA, MEC (BR) ([3]; human, 72 h): 3 µM (CI, BR)
RTCA, MEC (CI) ([3]; human, 72 h): 3 µM (CI, BR)
Spike Amplitude (SA) MEC ([3]; human, 72 h): 0.1 µM
SMILES: N=C(N)c1ccc(OCCCCCOc2ccc(C(=N)N)cc2)cc1 [Pentamidine]
Cmax total ([1]; Supplementary Table 1): 1800 nM
Cmax total ([1]; Table 1): 1800 nM
